{"source": "patent US20210115397A1", "about": "“METHOD FOR PROMOTING DIFFERENTIATION OF PLURIPOTENT STEM CELLS” (TOKYO INSTITUTE OF TECHNOLOGY, priority 2018, published 2021)", "tested_on": "RPChiPS771 hiPSCs", "assay": "Differentiation of RPChiPS771 into definitive endoderm with or without CHIR99021, SOX17+ cells", "format": "cell-based, human", "settings": "protocol B (CHIR99021 added) versus protocol A (without CHIR99021)", "procedure": "Medium 1 (M1): Initiation of differentiation was done by replacing the culture with Medium 1, including DMEM with 4, 500 mg/L glucose supplemented with 3 μM CHIR99021 (Stemgent), 100 ng/mL recombinant human activin-A (Cell Guidance Systems Ltd), and 2% B27 insulin (+) supplement (Life Technologies). On days 1 and 2, the media were replaced with medium 1 without CHIR99021. Cells were fixed in 4% paraformaldehyde (NACALAI TESQUE, INC.) in PBS, permeabilized with 0.1% Triton X-100 (NACALAI TESQUE, INC.), and were then blocked with 20% Blocking One (NACALAI TESQUE, INC., Japan) in PBST (0.1% Tween-20 in PBS). Antibodies were diluted in 20% Blocking One (NACALAI TESQUE, INC., Japan) in PBST (0.1% Tween-20 in PBS). Cells were counterstained with […] (DAPI) (Roche Diagnostics K.K., Switzerland). The following primary antibodies were used: mouse anti-Oct3/4 (Santa Cruz Biotechnology, Inc.), goat anti-Sox17 (R&D Systems, Inc.), goat anti-PDX1 (R&D Systems, Inc.), guinea pig anti-insulin (Dako), rabbit anti-C-peptide (Cell Signaling Technology, Inc.), and mouse anti-Nkx6.1 (Developmental Studies Hybridoma Bank). […] Positive cells versus total cells (DAPI-positive cells) were quantified using ImageXpress Micro cellular imaging system (Molecular Devices, LLC.).", "data": [{"smiles": "Cc1c[nH]c(-c2cnc(NCCNc3ccc(C#N)cn3)nc2-c2ccc(Cl)cc2Cl)n1", "note": "[CHIR99021, 6-[[2-[[4-(2,4-dichlorophenyl)-5-(4-methyl-1H-imidazole-2-yl)-2-pyrimidinyl]amino]ethyl]amino]nicotinonitrile]", "values": [{"measurement": "proportion of SOX17+ cells", "value": "a higher proportion of SOX17+ cells overall"}]}]}
